Values joined by “and” are separate entries in the source; they are usually repeats but may differ in a detail not shown here. Equal values may be shown once. “Also recorded” adds a separate entry of the source. Read-outs that look alike come from different tables or passages of the source.

This is an account of results in patent publication US7939564B2, “Combination with bis(thiohydrazide amides) for treating cancer” (Synta Pharmaceuticals Corp., priority 2006, dated 2011).

One data set relates to melanoma. The following applies: other currently used treatments for melanoma, cited from earlier work.
Another data set concerns Hsp70. In words: Hsp70 induction by Compound 1 in cells pre-treated with Tiron. It counts as cell-based. The following applies: Ramos cells pre-treated with 500 mM Tiron 1 hour prior to Compound 1 0.5 μM for 24 hours.
The subject of a further data set is Ramos cells. In words: ROS generation in drug-treated cells, carboxy-H2DCFDA probe, flow cytometry. It counts as cell-based. As to conditions: for blocking of the ROS generation induced by Compound 1: Ramos cells pre-treated 1 hour (NAC 1.0 mM or 10 mM; Tiron 500 mM) prior to Compound 1 0.5 μM for 24 hours. The method, then:
In these experiments, we monitored the production of ROS using the cell permeable Carboxy-H2DCFDA probe. When this probe is oxidized by ROS, it emits a green fluorescence that can be detected using flow cytometry or fluorescent microscopy. Ramos cells were treated with Compound 1 (0.5 μM) for 24 hours or pre-treated with 1.0 mM or 10 mM NAC for 1 hour prior to addition of Compound 1 was then washed gently once with warm HBSS/Ca/Mg (GIBCO.14025). 25 μM carboxy-H2DCFDA (Invitrogen. C400) working solution was added to cover the cells, and the cells were incubated for 30 minutes at 37° C., protected from light. The cells were gently washed three times in warm HBSS/Ca/Mg. ROS levels, as determined by fluorescence intensity, were determined by flow cytometry (excitation at 495 nm, emission at 529 nm).
Tiron is a direct scavenger of ROS and is a potent inhibitor of oxidative stress. Ramos cells were pre-treated with 500 mM Tiron 1 hour prior to addition of Compound 1 (0.5 μM) for 24 hours, then measurement of ROS levels was performed as in Example 3.

Data set [1] relates to RERF-LC-AI^IVP human lung tumor cells. Nature of the data set: Nude mouse xenograft study with fractionated ionizing radiation. It counts as in vivo. Here is the method: Cells that had been cryopreserved in liquid nitrogen were rapidly thawed at 37° C. and transferred to a tissue culture flask containing growth media and then incubated at 37° C. in a 5% CO2 incubator. […] Cultures were passaged by washing with 10 mL of room temperature phosphate buffered saline (PBS) and then disassociating cells by adding 5 mL 1× trypsin-EDTA and incubating at 37° C. until the cells detached from the surface of the flask. To inactivate the trypsin, 5 mL of growth media was added and then the contents of the flask were centrifuged to pellet the cells. The supernatant was aspirated and the cell pellet was resuspended in 10 mL of growth media and the cell number determined using a hemocytometer.
Animals were housed 4-5/cage in micro-isolators, with a 12 hr/12 hr light/dark cycle, acclimated for at least 1 week prior to use and fed normal laboratory chow ad libitum.

Where [2] appears, read: RECIST, Efficacy Sample (n = 50 combination, n = 27 Paclitaxel).
Setting [3] is: Tables 3 and 4, lines of the applicant's own trial.

Description for Stage 1V melanoma: A total of 81 people with Stage 1V melanoma were tested in a randomized trial with ratios of 2:1, compound (I)+paclitaxel (53 people): paclitaxel alone (28 people). The dosages administered were 213 mg/m^2 compound (I), 80 mg/m^2 paclitaxel, and the dosage regimen was 3 weekly doses per each 4 week cycle. Patients were treated until progression of the disease. Patients who progressed on paclitaxel alone were given the option to crossover to compound (I)+paclitaxel and were treated until progression. The tumor assessments were performed at baseline, Cycle 2, and every other Cycle thereafter.

In the case of `CC(=O)O[C@H]1C(=O)[C@@]2(C)[C@H]([C@H](OC(=O)c3ccccc3)[C@]3(O)C[C@H](OC(=O)[C@H](O)[C@@H](NC(=O)c4ccccc4)c4ccccc4)C(C)=C1C3(C)C)[C@]1(OC(C)=O)CO[C@@H]1C[C@@H]2O` [Paclitaxel], the “OR (%)” value in the data set on melanoma (listed as Paclitaxel (Taxol)) is 12% and 17.8%. Also, the “Time to Progression (days), 25th percentile” value with Stage 1V melanoma (Kaplan-Meier estimate, Efficacy Sample, 213 mg/m^2 compound (I), 80 mg/m^2 paclitaxel, 3 weekly doses per 4 week cycle) is listed as 49.0 days. In the data set on Stage 1V melanoma (Kaplan-Meier estimate, Efficacy Sample, same regimen), the “Time to Progression (days), 75th percentile” value is recorded as 106.0 days. Also, in the data set with Stage 1V melanoma (Kaplan-Meier estimate, Efficacy Sample, same regimen, log-rank p-value 0.017), the “Time to Progression (days), Median” value is listed as 56.0 days. In addition, in the data set with Stage 1V melanoma (RECIST, Efficacy Sample), the “Best Overall Response: Partial Response (PR), percent of patients” value is “(3.7%)” and the “Best Overall Response: Progressive Disease (PD), percent of patients” value is reported as “(59.3%)”. Besides, in the data set on Stage 1V melanoma (setting [2]), the “Best Overall Response: Complete Response (CR), number of patients” value was 0; the “Best Overall Response: Partial Response (PR), number of patients” value was 1; the “Best Overall Response: Progressive Disease (PD), number of patients” value stood at 16; the “Best Overall Response: Stable Disease (SD), number of patients” value amounted to 10. The “CR + PR” value in the data set on Stage 1V melanoma (RECIST, Efficacy Sample, Two-Sided Fisher's Exact Test p-value 0.149) worked out at 3.7%. Besides, in the data set with Stage 1V melanoma (setting [3]), the “CR (%)” value came out at 0%, the “OR (%)” value stood at 3.7%, the “PR (%)” value is given as 3.7% and the “TTP” value is 57 days.

Turning to `O=S(=O)(O)c1cc(O)c(O)c(S(=O)(=O)O)c1` [Tiron], the “blocking of the Hsp70 induction by Compound 1” value with Hsp70 is on record as “blocked; also recorded: blocks the induction of Hsp70”. The “blocking of the ROS generation induced by Compound 1” value with Ramos cells is reported as “blocked the ability of Compound 1 to generate ROS; also recorded: block the production of reactive oxygen species”.

Consider `CNC(=O)c1cc(Oc2ccc(NC(=O)Nc3ccc(Cl)c(C(F)(F)F)c3)cc2)ccn1` [Sorafenib], for which the “PR (%)” value in the data set with melanoma was 2.6%.

Turning to `CC/C(=C(\c1ccccc1)c1ccc(OCCN(C)C)cc1)c1ccccc1` [Tamoxifen], in the data set with melanoma, the “CR (%)” value is 1%, the “OR (%)” value is recorded as 4.9% and the “PR (%)” value is reported as 3.9%.

Take `CCOP(=O)(OCC)C(C)NC(=O)N(CCCl)N=O` (stereo not drawn) [Fotemustine]: in the data set on melanoma, the “OR (%)” value is 15.2%, the “Survival (months)” value is 7.3 months and the “TTP” value is 55 days.

Turning to `CN(NC(=O)CC(=O)NN(C)C(=S)c1ccccc1)C(=S)c1ccccc1` [Compound (1)], the “earliest time at which induction of ROS was observed” value in the data set on Ramos cells (Ramos cells, Compound 1) is ≤ 3 h. Further, the “generation of ROS in drug-treated cells” value in the data set on Ramos cells (Ramos cells, Compound 1 0.5 μM, 24 hours, versus DMSO) was “induced the generation of ROS; also recorded: emit more reactive oxygen species than cells treated with DMSO alone”. The “% T/C” value was found to be 47 in data set [1] (100 mg/kg Compound 1 5 times per week combined with 0.5 Gy radiation 3 times per week, dosed 420 minutes after irradiation) and 112 in data set [1] (100 mg/kg Compound 1 i.v. 5 times per week, 15 doses, alone (mock irradiation)). Moreover, the “toxicity of the combination treatment” value in data set [1] (100 mg/kg Compound 1 combined with 0.5 Gy radiation, Nude mice) is on record as “not associated with excessive toxicity”.

Turning to `CC(=O)N[C@@H](CS)C(=O)O` [NAC], the “blocking of the ROS generation induced by Compound 1” value with Ramos cells is reported as “almost completely blocked the generation of ROS; also recorded: can be blocked; also recorded: block the production of reactive oxygen species”.
